In patent publication US20060058374A1, “Urotensin II receptor agents” (priority 2002, published 2006):
Read-outs that look alike come from different tables or passages of the source.

Columns and labels:
male NSA mice = test: Locomotor activity in mice after i.v. injection; type: in vivo
Procedure: The test compound of Formula III was tested at 10 mg/kg, i.v. in male NSA mice. Locomotor activity was measured for 15 min following injection. The locomotor activity was decreased relative to sham injected animals. Within a few minutes into the session, the mice sat quietly in a corner of the chamber in a normal posture.
Following the initial experiment, a dose-response curves using 1, 3, and 10 mg/kg, i.v. were conducted. The effects of 10 mg/kg the test compound of Formula III were replicated.

CCKa = molecular target: T1, CCKa (Homo sapiens, UniProt P32238); test: R-SAT assay, CCKa; type: cell-based; conditions: percent maximal activation relative to control compound
T1 construct: expressed in transfected cells; host or cells: NIH3T3
Procedure: (§1) The test compound of Formula III was screened according to a modification of the method described in U.S. Pat. No. 5,912,312. The method, herein referred to as Method 1, consists of the following:
(§2) Receptor Selection and Amplification (R-SAT) Assays.
(§3) R-SAT assays were performed with minor modifications from that previously described (6). Briefly, NIH3T3 cells were grown in tissue culture treated rollerbottles to 40-50% confluence. Cells were transfected for 12-16 hours with plasmid DNAs using superfect (Qiagen Inc.) as per manufacture's protocols. R-SAT's were generally performed with 10 μg/rollerbottle of receptor and 50 μg/rollerbottle of Beta-galactosidase plasmid DNA. All receptor and G-protein constructs used were in the PSI mammalian expression vector (Promega Inc.). The transfected cells were then trypsinized and frozen in DMEM containing 10% DMSO. Frozen cells were later thawed, plated at 10,000-40,000 cells per well of a 96 ½ area plate that contained drug. […] Media was then removed from the plates and marker gene activity was measured by the addition of the beta-galactosidase substrate ONPG (in PBS with 5% NP-40). The resulting colorimetric reaction was measured in a spectrophotometric plate reader (Titertek Inc.) at […].
(§4) EC50, IC50 and Ki are presented as the negative of the calculated potency in Molar.

urotensin II receptor = molecular target: T2, urotensin II receptor (Homo sapiens, UniProt Q9UKP6); test: R-SAT assay, Urotensin II receptor; type: cell-based
T2 construct: expressed in transfected cells; host or cells: NIH3T3
T2 sequence (Q9UKP6 1-389): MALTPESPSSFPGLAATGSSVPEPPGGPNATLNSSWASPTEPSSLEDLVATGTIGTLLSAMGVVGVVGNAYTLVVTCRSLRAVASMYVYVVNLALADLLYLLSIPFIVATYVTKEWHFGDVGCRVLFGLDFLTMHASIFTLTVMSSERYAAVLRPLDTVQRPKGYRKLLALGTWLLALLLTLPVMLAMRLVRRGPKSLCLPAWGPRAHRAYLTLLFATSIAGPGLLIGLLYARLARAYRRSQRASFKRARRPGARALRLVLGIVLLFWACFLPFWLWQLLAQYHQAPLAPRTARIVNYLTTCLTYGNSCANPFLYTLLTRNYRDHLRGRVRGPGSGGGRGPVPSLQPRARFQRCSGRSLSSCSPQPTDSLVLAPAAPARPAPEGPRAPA
Procedure: as §1, §2
R-SAT assays were performed with minor modifications from that previously described (6). Briefly, NIH3T3 cells were grown in tissue culture treated rollerbottles to 40-50% confluence. Cells were transfected for 12-16 hours with plasmid DNAs using superfect (Qiagen Inc.) as per manufacture's protocols. R-SAT's were generally performed with 10 μg/rollerbottle of receptor and 50 μg/rollerbottle of Beta-galactosidase plasmid DNA. All receptor and G-protein constructs used were in the PSI mammalian expression vector (Promega Inc.). The transfected cells were then trypsinized and frozen in DMEM containing 10% DMSO. Frozen cells were later thawed, plated at 10,000-40,000 cells per well of a 96 ½ area plate that contained drug. Cells were then grown in a humidified atmosphere with 5% ambient CO2 for five days. Media was then removed from the plates and marker gene activity was measured by the addition of the beta-galactosidase substrate ONPG (in PBS with 5% NP-40). The resulting colorimetric reaction was measured in a spectrophotometric plate reader (Titertek Inc.) at […].
as §4

Histamine H1 = molecular target: T3, Histamine H1 (Homo sapiens, UniProt P35367); test: R-SAT assay, Histamine H1; type: cell-based; conditions: competitive antagonist mode; percent maximal inhibition relative to control standard compound
T3 construct: expressed in transfected cells; host or cells: NIH3T3 cells, receptor plasmid in PSI mammalian expression vector (Promega)
Procedure: as §1, §2, §3, §4

Beta Adrenergic 1 = molecular target: T4, Beta Adrenergic 1 (Homo sapiens, UniProt P08588); test: R-SAT assay, Beta Adrenergic 1; type: cell-based; conditions: percent maximal activation relative to control compound
T4 construct: expressed in transfected cells; host or cells: NIH3T3
Procedure: as §1, §2, §3, §4

Acetylcholine m1 = molecular target: T5, Acetylcholine m1 (Homo sapiens, UniProt P11229); test: R-SAT assay, Acetylcholine m1; type: cell-based
T5 construct: expressed in transfected cells; host or cells: NIH3T3
Procedure: as §1, §2, §3, §4

Dopamine D1 = molecular target: T6, Dopamine D1 (Homo sapiens, UniProt P21728); test: R-SAT assay, Dopamine D1; type: cell-based
T6 construct: expressed in transfected cells; host or cells: NIH3T3
Procedure: as §1, §2, §3, §4

Histamine H2 = molecular target: T7, Histamine H2 (Homo sapiens, UniProt P25021); test: R-SAT assay, Histamine H2; type: cell-based
T7 construct: expressed in transfected cells; host or cells: NIH3T3
Procedure: as §1, §2, §3, §4

Serotonin 5HT-1E = molecular target: T8, Serotonin 5HT-1E (Homo sapiens, UniProt P28566); test: R-SAT assay, Serotonin 5HT-1E; type: cell-based; conditions: percent maximal activation relative to control compound
T8 construct: expressed in transfected cells; host or cells: NIH3T3
Procedure: as §1, §2, §3, §4

Serotonin 5HT2c = molecular target: T9, Serotonin 5HT2c (Homo sapiens, UniProt P28335); test: R-SAT assay, Serotonin 5HT2c; type: cell-based; conditions: inverse agonist mode; percent maximal inhibition relative to repression of basal activity by a control standard compound
T9 construct: expressed in transfected cells; host or cells: NIH3T3
Procedure: as §1, §2, §3, §4

Serotonin 5HT6 = molecular target: T10, Serotonin 5HT6 (Homo sapiens, UniProt P50406); test: R-SAT assay, Serotonin 5HT6; type: cell-based; conditions: percent maximal activation relative to control compound
T10 construct: expressed in transfected cells; host or cells: NIH3T3
Procedure: as §1, §2, §3, §4

Serotonin 5HT7 = molecular target: T11, Serotonin 5HT7 (Homo sapiens, UniProt P34969); test: R-SAT assay, Serotonin 5HT7; type: cell-based; conditions: percent maximal activation relative to control compound
T11 construct: expressed in transfected cells; host or cells: NIH3T3
Procedure: as §1, §2, §3, §4

CRF1 = molecular target: T12, CRF1 (Homo sapiens, UniProt P34998); test: R-SAT assay, CRF1; type: cell-based; conditions: percent maximal activation relative to control compound
T12 construct: expressed in transfected cells; host or cells: NIH3T3
Procedure: as §1, §2, §3, §4

Beta Adrenergic 2 = molecular target: T13, Beta Adrenergic 2 (Homo sapiens, UniProt P07550); test: R-SAT assay, Beta Adrenergic 2; type: cell-based
T13 construct: expressed in transfected cells; host or cells: NIH3T3
Procedure: as §1, §2, §3, §4

SST2 = molecular target: T14, SST2 (Homo sapiens, UniProt P30874); test: R-SAT assay, SST2; type: cell-based; conditions: percent maximal activation relative to control compound
T14 construct: expressed in transfected cells; host or cells: NIH3T3
Procedure: as §1, §2, §3, §4

SST3 = molecular target: T15, SST3 (Homo sapiens, UniProt P32745); test: R-SAT assay, SST3; type: cell-based; conditions: percent maximal activation relative to control compound
T15 construct: expressed in transfected cells; host or cells: NIH3T3
Procedure: as §1, §2, §3, §4

Dopamine D2 = molecular target: T16, Dopamine D2 (Homo sapiens, UniProt P14416); test: R-SAT assay, Dopamine D2; type: cell-based
T16 construct: expressed in transfected cells; host or cells: NIH3T3
Procedure: as §1, §2, §3, §4

CRF2a = molecular target: T17, CRF2a (Homo sapiens, UniProt Q13324); test: R-SAT assay, CRF2a; type: cell-based; conditions: percent maximal activation relative to control compound
T17 construct: expressed in transfected cells; host or cells: NIH3T3
Procedure: as §1, §2, §3, §4

k opioid = molecular target: T18, k opioid (Homo sapiens, UniProt P41145); test: R-SAT assay, k opioid; type: cell-based; conditions: percent maximal activation relative to control compound
T18 construct: expressed in transfected cells; host or cells: NIH3T3
Procedure: as §1, §2, §3, §4

SST5 = molecular target: T19, SST5 (Homo sapiens, UniProt P35346); test: R-SAT assay, SST5; type: cell-based; conditions: percent maximal activation relative to control compound
T19 construct: expressed in transfected cells; host or cells: NIH3T3
Procedure: as §1, §2, §3, §4

[1] = percent maximal activation relative to control compound
[2] = competitive antagonist mode, percent maximal inhibition relative to control standard compound

T13 sequence (P07550 whole entry): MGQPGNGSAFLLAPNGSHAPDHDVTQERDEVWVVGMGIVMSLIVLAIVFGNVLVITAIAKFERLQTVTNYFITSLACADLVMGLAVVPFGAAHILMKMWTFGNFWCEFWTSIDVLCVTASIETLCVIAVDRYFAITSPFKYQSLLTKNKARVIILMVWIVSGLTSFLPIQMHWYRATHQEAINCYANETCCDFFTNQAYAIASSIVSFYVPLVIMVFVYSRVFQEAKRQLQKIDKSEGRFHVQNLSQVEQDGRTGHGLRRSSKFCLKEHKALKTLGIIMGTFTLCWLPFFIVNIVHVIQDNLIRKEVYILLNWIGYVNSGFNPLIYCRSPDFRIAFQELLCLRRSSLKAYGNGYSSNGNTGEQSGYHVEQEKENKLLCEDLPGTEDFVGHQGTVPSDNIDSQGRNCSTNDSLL
T6 sequence (P21728 whole entry): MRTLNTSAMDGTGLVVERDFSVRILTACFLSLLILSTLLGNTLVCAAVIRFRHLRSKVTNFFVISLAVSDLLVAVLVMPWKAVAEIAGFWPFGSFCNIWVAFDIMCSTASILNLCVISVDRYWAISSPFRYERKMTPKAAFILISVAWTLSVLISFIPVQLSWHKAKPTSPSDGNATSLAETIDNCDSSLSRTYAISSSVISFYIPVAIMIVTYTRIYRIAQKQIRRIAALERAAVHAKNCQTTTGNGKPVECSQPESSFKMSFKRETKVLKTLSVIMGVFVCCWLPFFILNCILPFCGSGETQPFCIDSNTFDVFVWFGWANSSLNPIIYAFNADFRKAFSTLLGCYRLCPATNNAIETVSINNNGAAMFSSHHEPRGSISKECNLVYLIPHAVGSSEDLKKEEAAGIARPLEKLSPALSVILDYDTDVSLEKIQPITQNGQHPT
T5 sequence (P11229 whole entry): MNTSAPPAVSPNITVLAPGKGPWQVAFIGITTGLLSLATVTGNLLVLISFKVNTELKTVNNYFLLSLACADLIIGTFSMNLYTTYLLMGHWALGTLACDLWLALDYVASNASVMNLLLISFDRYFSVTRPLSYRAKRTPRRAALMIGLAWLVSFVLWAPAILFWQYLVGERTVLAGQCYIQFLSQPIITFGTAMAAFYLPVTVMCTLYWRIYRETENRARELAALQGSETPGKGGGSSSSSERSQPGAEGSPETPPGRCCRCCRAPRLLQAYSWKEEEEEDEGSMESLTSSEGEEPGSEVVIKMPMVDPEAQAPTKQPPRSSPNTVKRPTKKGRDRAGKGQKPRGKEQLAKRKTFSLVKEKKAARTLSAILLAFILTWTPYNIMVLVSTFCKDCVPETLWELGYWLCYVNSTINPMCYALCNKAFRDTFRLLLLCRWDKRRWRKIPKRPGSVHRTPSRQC
T16 sequence (P14416 whole entry): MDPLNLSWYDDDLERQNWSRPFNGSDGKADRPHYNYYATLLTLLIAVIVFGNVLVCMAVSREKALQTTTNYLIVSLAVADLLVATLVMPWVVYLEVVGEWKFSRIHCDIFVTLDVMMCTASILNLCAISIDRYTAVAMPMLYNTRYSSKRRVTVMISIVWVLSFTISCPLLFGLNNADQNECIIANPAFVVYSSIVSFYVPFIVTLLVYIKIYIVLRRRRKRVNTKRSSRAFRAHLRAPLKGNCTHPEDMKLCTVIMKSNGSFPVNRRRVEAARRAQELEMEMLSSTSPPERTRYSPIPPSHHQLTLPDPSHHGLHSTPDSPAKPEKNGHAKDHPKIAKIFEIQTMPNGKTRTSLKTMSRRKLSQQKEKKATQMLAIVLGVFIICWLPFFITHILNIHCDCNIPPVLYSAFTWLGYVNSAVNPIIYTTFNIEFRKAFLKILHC
T7 sequence (P25021 whole entry): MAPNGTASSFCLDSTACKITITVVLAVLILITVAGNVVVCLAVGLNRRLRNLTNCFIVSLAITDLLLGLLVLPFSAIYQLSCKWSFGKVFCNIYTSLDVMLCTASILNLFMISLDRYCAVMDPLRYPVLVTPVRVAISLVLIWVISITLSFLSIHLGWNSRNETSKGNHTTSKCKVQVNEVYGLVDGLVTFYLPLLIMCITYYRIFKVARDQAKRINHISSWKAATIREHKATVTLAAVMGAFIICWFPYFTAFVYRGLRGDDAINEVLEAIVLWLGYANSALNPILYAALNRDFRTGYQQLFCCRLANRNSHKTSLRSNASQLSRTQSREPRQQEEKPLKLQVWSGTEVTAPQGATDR
T14 sequence (P30874 whole entry, species assumed): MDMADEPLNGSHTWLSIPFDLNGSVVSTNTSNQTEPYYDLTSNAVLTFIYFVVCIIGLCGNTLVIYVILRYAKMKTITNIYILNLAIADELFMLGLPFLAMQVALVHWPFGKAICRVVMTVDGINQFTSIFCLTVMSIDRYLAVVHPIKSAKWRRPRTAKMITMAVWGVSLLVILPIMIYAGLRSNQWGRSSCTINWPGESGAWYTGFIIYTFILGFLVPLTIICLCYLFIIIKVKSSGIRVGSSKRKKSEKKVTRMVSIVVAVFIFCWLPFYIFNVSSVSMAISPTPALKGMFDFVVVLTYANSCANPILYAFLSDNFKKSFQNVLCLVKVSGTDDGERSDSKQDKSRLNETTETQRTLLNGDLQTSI
T19 sequence (P35346 whole entry, species assumed): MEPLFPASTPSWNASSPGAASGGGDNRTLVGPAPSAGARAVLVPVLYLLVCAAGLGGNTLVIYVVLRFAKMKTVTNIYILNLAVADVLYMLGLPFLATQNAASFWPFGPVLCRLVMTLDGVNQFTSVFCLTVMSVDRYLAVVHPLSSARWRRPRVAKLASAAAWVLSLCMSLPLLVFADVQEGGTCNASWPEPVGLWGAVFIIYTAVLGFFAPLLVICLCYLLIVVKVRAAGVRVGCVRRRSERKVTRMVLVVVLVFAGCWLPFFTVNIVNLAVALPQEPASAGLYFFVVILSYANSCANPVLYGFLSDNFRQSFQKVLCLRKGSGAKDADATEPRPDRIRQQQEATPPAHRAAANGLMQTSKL
T12 sequence (P34998 24-415): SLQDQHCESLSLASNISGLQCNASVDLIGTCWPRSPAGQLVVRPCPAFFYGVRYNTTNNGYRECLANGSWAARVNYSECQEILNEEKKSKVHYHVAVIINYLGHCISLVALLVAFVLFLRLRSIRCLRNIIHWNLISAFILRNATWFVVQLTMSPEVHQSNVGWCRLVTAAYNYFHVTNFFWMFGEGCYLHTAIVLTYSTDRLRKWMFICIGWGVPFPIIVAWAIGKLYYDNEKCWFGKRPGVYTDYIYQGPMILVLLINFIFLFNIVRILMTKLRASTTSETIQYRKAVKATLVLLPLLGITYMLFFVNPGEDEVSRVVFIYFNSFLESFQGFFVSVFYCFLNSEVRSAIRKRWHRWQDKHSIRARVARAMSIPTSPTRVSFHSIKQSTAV
T1 sequence (P32238 whole entry): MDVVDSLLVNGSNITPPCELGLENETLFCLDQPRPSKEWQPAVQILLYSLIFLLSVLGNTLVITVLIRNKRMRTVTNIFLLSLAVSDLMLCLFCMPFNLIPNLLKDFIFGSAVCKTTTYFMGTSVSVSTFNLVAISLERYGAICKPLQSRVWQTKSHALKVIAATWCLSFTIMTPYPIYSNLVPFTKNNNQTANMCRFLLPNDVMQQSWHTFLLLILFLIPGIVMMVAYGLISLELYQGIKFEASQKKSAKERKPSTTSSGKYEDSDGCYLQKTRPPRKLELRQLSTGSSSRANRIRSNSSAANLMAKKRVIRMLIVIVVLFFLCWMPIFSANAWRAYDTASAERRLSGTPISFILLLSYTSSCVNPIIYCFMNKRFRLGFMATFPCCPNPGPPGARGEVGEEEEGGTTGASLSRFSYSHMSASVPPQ
T3 sequence (P35367 whole entry): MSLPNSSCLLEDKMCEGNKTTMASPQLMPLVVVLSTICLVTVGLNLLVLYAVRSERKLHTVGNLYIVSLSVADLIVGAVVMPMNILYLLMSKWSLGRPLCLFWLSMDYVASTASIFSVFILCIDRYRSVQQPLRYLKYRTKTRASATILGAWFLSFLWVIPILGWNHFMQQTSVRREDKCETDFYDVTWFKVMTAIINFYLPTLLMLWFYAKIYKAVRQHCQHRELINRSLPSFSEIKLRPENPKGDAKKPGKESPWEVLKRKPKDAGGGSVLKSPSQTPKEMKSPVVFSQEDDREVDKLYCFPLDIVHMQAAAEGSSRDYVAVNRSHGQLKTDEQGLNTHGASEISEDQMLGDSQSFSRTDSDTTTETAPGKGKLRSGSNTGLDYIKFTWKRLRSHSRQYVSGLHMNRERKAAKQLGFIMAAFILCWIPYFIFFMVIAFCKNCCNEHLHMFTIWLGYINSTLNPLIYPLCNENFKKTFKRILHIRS
T11 sequence (P34969 whole entry): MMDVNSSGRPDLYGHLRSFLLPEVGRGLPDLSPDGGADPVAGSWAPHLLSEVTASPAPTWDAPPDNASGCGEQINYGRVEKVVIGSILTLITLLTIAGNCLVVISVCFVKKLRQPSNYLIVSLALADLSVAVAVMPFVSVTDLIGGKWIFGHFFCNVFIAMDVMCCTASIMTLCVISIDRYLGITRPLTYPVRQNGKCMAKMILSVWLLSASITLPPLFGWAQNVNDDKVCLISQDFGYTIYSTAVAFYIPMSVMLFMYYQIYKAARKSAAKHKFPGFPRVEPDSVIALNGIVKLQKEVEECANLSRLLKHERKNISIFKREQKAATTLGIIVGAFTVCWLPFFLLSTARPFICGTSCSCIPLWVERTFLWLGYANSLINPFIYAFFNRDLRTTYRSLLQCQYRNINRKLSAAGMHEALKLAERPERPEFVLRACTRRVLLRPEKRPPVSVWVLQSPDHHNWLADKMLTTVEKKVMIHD

Structure (SMILES): CN(C)CCC1(c2ccc(Cl)cc2)Cc2ccccc2C(=O)O1 (stereo not drawn) [Formula III]
- locomotor activity (male NSA mice; 10 mg/kg i.v., male NSA mice, 15 min following injection, relative to sham injected animals): decreased
- behavioural observation (responsiveness, appearance) (male NSA mice; 10 mg/kg i.v., male NSA mice, during the session): responsive to sound and touch and otherwise appeared normal
- effects on locomotor activity in dose-response experiment (male NSA mice; dose-response 1, 3 and 10 mg/kg i.v., result stated for 10 mg/kg): replicated
- Agonist % Eff (CCKa): 0%
- EC50 (urotensin II receptor; agonist mode, negative of the calculated potency in Molar, read-out: Agonist EC50 (converted)): 100 nM
- maximal biological response (urotensin II receptor; compared with the response evoked by the urotensin II peptide): equal to or greater than the response evoked by the urotensin II peptide
- EC50 (urotensin II receptor; functional potency, Example 1 (Method 1), read-out: EC50 for the urotensin II receptor): 200 nM
- Agonist % Eff (urotensin II receptor; [1]): 132%
- Competitive Antagonist % Inh (Histamine H1): 0%
- Agonist % Eff (Beta Adrenergic 1): 0%
- Competitive Antagonist % Inh (Acetylcholine m1; [2]): 13%
- Agonist % Eff (Acetylcholine m1; [1]): 3%
- Competitive Antagonist % Inh (Dopamine D1; [2]): 0%
- Agonist % Eff (Dopamine D1; [1]): 0%
- Inverse Agonist % Inh (Histamine H2; inverse agonist mode, percent maximal inhibition relative to repression of basal activity by a control standard compound): 0%
- Agonist % Eff (Histamine H2; [1]): 0%
- Agonist % Eff (Serotonin 5HT-1E): 19%
- Inverse Agonist % Inh (Serotonin 5HT2c): 0%
- Agonist % Eff (Serotonin 5HT6): 0%
- Agonist % Eff (Serotonin 5HT7): 0%
- Agonist % Eff (CRF1): 0%
- Competitive Antagonist % Inh (Beta Adrenergic 2; [2]): 0%
- Agonist % Eff (Beta Adrenergic 2; [1]): 0%
- Agonist % Eff (SST2): 0%
- Agonist % Eff (SST3): 0%
- Competitive Antagonist % Inh (Dopamine D2; [2]): 13.2%
- Agonist % Eff (Dopamine D2; [1]): 13.6%
- Agonist % Eff (CRF2a): 0%
- Agonist % Eff (k opioid): 0%
- Agonist % Eff (SST5): 0%
